Test results from patent publication US8247211B2, “Glycopeptide antibiotics” (American Cyanamid Company, priority 2001, dated 2012).
Converted amounts (≈) assume the structure as drawn. One block for each molecule: values may come before it.

How the values were obtained:
Assay in all cases: In vitro antibacterial evaluation: minimum inhibitory concentration (MIC), broth dilution method
Assay type in all cases: cell-based
Staphylococcus sp. = conditions: for MIC Staphylococcus aureus (ATCC 29213): strain ATCC 29213; for MIC Staphylococcus aureus (GC 1131): strain GC 1131; for MIC Staphylococcus aureus (GC 3051): strain GC 3051; for MIC Staphylococcus aureus (GC 3053): strain GC 3053; for MIC Staphylococcus aureus (GC 4541): strain GC 4541; for MIC Staphylococcus aureus (GC 4542): strain GC 4542; for MIC Staphylococcus aureus-SMITH (GC 4543): strain GC 4543; for MIC Staphylococcus aureus (GC 4544): strain GC 4544; for MIC Staphylococcus aureus (GC 4545): strain GC 4545; for MIC Staphylococcus haemolyticus (GC 4546): strain GC 4546; for MIC Coagulase Negative Staphylococcus (GC 4547): strain GC 4547; for MIC Coagulase Negative Staphylococcus (GC 4548): strain GC 4548; for MIC Coagulase Negative Staphylococcus (GC 4549): strain GC 4549; for MIC Coagulase Negative Staphylococcus (GC 4551): strain GC 4551
Outline: (§1)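 Broth dilution per NCCLS M7-A2 in Muller-Hinton II […], inoculum 5×10^5 CFU/mL, antibiotic tested over 64-0.06 μg/mL. MIC is taken as the lowest concentration that inhibits growth. Panel includes recent clinical isolates resistant to methicillin, penicillin and/or vancomycin.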

Enterococcus sp. = conditions: 18 hours at 35° C.
Outline: as §1

Streptococcus sp. = conditions: 18 hours at 35° C.
Outline: as §1

Escherichia coli = conditions: 18 hours at 35° C.
Outline: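 MIC read as lowest drug level preventing visible growth. Organisms at 5×10^5 CFU/mL were exposed to a 64-0.06 μg/mL dilution series in Muller-Hinton II […] following NCCLS broth dilution standard M7-A2.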

[1] = Enterococcus faecalis (ATCC 29212)
[2] = Enterococcus faecalis (GC 2242)
[3] = Enterococcus faecalis (GC 2691)
[4] = Enterococcus faecalis (GC 3059)
[5] = Enterococcus faecalis (GC 4552)
[6] = Enterococcus faecalis (GC 4553)
[7] = Enterococcus faecalis (GC 4554)
[8] = Enterococcus faecalis (GC 6189)
[9] = broth dilution, inoculum 5×10^5 CFU/mL
[10] = Streptococcus agalactiae (GC 4564)
[11] = Streptococcus pneumoniae (ATCC 6301)
[12] = Streptococcus pneumoniae (GC 1894)
[13] = Streptococcus pneumoniae (GC 4565)
[14] = Streptococcus pyogenes (GC 4563)

MIC Staphylococcus aureus (ATCC 29213) (Staphylococcus sp.): 4 µg/mL (≈ 2.65 µM)
MIC Staphylococcus aureus (GC 1131) (Staphylococcus sp.): 4 µg/mL (≈ 2.65 µM)
MIC Staphylococcus aureus (GC 3051) (Staphylococcus sp.): 4 µg/mL (≈ 2.65 µM)
MIC Staphylococcus aureus (GC 3053) (Staphylococcus sp.): 4 µg/mL (≈ 2.65 µM)
MIC Staphylococcus aureus (GC 4541) (Staphylococcus sp.): 4 µg/mL (≈ 2.65 µM)
MIC Staphylococcus aureus (GC 4542) (Staphylococcus sp.): 4 µg/mL (≈ 2.65 µM)
MIC Staphylococcus aureus-SMITH (GC 4543) (Staphylococcus sp.): 4 µg/mL (≈ 2.65 µM)
MIC Staphylococcus aureus (GC 4544) (Staphylococcus sp.): 4 µg/mL (≈ 2.65 µM)
MIC Staphylococcus aureus (GC 4545) (Staphylococcus sp.): 4 µg/mL (≈ 2.65 µM)
MIC Coagulase Negative Staphylococcus (GC 4547) (Staphylococcus sp.): 4 µg/mL (≈ 2.65 µM)
MIC Coagulase Negative Staphylococcus (GC 4548) (Staphylococcus sp.): 4 µg/mL (≈ 2.65 µM)
MIC Coagulase Negative Staphylococcus (GC 4549) (Staphylococcus sp.): 4 µg/mL (≈ 2.65 µM)
MIC Coagulase Negative Staphylococcus (GC 4551) (Staphylococcus sp.): 8 µg/mL (≈ 5.29 µM)
MIC Coagulase Negative Staphylococcus (GC 6257) (Staphylococcus sp.; strain GC 6257): 4 µg/mL (≈ 2.65 µM)
MIC Enterococcus avium (GC 4558) (Enterococcus sp.; Enterococcus avium (GC 4558)): 4 µg/mL (≈ 2.65 µM)
MIC Enterococcus faecalis (ATCC 29212) (Enterococcus sp.; [1]): 4 µg/mL (≈ 2.65 µM)
MIC Enterococcus faecalis (GC 2242) (Enterococcus sp.; [2]): 4 µg/mL (≈ 2.65 µM)
MIC Enterococcus faecalis (GC 2691) (Enterococcus sp.; [3]): 4 µg/mL (≈ 2.65 µM)
MIC Enterococcus faecalis (GC 3059) (Enterococcus sp.; [4]): 4 µg/mL (≈ 2.65 µM)
MIC Enterococcus faecalis (GC 4552) (Enterococcus sp.; [5]): 4 µg/mL (≈ 2.65 µM)
MIC Enterococcus faecalis (GC 4553) (Enterococcus sp.; [6]): 4 µg/mL (≈ 2.65 µM)
MIC Enterococcus faecalis (GC 4554) (Enterococcus sp.; [7]): 4 µg/mL (≈ 2.65 µM)
MIC Enterococcus faecalis (GC 6189) (Enterococcus sp.; [8]): 4 µg/mL (≈ 2.65 µM)
MIC Enterococcus faecium (GC 2243) (Enterococcus sp.; Enterococcus faecium (GC 2243)): 4 µg/mL (≈ 2.65 µM)
MIC Enterococcus faecium (GC 4556) (Enterococcus sp.; Enterococcus faecium (GC 4556)): 4 µg/mL (≈ 2.65 µM)
MIC Enterococcus faecium (GC 4557) (Enterococcus sp.; Enterococcus faecium (GC 4557)): 4 µg/mL (≈ 2.65 µM)
MIC Enterococcus avium (GC 4558) (Enterococcus sp.; [9]): 4 µg/mL (≈ 2.65 µM)
MIC Enterococcus faecalis (ATCC 29212) (Enterococcus sp.; [9]): 4 µg/mL (≈ 2.65 µM)
MIC Enterococcus faecalis (GC 2242) (Enterococcus sp.; [9]): 4 µg/mL (≈ 2.65 µM)
MIC Enterococcus faecalis (GC 2691) (Enterococcus sp.; [9]): 4 µg/mL (≈ 2.65 µM)
MIC Enterococcus faecalis (GC 3059) (Enterococcus sp.; [9]): 4 µg/mL (≈ 2.65 µM)
MIC Enterococcus faecalis (GC 4552) (Enterococcus sp.; [9]): 4 µg/mL (≈ 2.65 µM)
MIC Enterococcus faecalis (GC 4553) (Enterococcus sp.; [9]): 4 µg/mL (≈ 2.65 µM)
MIC Enterococcus faecalis (GC 4554) (Enterococcus sp.; [9]): 4 µg/mL (≈ 2.65 µM)
MIC Enterococcus faecalis (GC 6189) (Enterococcus sp.; [9]): 4 µg/mL (≈ 2.65 µM)
MIC Enterococcus faecium (GC 2243) (Enterococcus sp.; [9]): 4 µg/mL (≈ 2.65 µM)
MIC Enterococcus faecium (GC 4556) (Enterococcus sp.; [9]): 4 µg/mL (≈ 2.65 µM)
MIC Enterococcus faecium (GC 4557) (Enterococcus sp.; [9]): 4 µg/mL (≈ 2.65 µM)
MIC Streptococcus agalactiae (GC 4564) (Streptococcus sp.; [10]): 0.25 µg/mL (≈ 0.165 µM)
MIC Streptococcus pneumoniae (ATCC 6301) (Streptococcus sp.; [11]): 0.12 µg/mL (≈ 0.0794 µM)
MIC Streptococcus pneumoniae (GC 1894) (Streptococcus sp.; [12]): <0.06 µg/mL
MIC Streptococcus pneumoniae (GC 4565) (Streptococcus sp.; [13]): 0.12 µg/mL (≈ 0.0794 µM)
MIC Streptococcus pyogenes (GC 4563) (Streptococcus sp.; [14]): 0.5 µg/mL (≈ 0.331 µM)
MIC Streptococcus agalactiae (GC 4564) (Streptococcus sp.; [9]): 0.25 µg/mL (≈ 0.165 µM)
MIC Streptococcus pneumoniae (ATCC 6301) (Streptococcus sp.; [9]): 0.12 µg/mL (≈ 0.0794 µM)
MIC Streptococcus pneumoniae (GC 1894) (Streptococcus sp.; [9]): <0.06 µg/mL
MIC Streptococcus pneumoniae (GC 4565) (Streptococcus sp.; [9]): 0.12 µg/mL (≈ 0.0794 µM)
MIC Streptococcus pyogenes (GC 4563) (Streptococcus sp.; [9]): 0.5 µg/mL (≈ 0.331 µM)
MIC Escherichia coli (ATCC 25922) (Escherichia coli): 64 µg/mL (≈ 42.3 µM)
MIC Escherichia coli (GC 4559) (Escherichia coli): >64 µg/mL
MIC Escherichia coli (GC 4560) (Escherichia coli): 8 µg/mL (≈ 5.29 µM)
Structure (SMILES): CC(C)CC(=O)OC1C(O)C(OC2C(CO)OC(Oc3ccc(CC4NC(=O)C(C(C)c5ccccc5)NC(=O)CNC(=O)C(CO)NC(=O)C(C(O)C5CNC(=N)N5C5OC(CO)C(O)C(O)C5O)NC(=O)C(C(O)C5CNC(=N)N5)NC4=O)cc3)C(O)C2O)OC2COC3(OC21)C1CC2CC(C1)CC3C2 (stereo not drawn) [Example 218, Cyclo[glycyl-β-methylphenylalanyl-O-[4-O-[4,6-O-(2-adamantylidene)-3-O-(3-methyl-butanoyl)-hexopyranosyl]hexopyranosyl]tyrosyl-3-(2-iminoimidazolidin-4-yl)-seryl-3-(3-hexopyranosyl-2-iminoimidazolidin-4-yl)serylseryl]]
MIC Staphylococcus haemolyticus (GC 4546) (Staphylococcus sp.): 4 µg/mL (≈ 2.65 µM)

MIC Staphylococcus aureus (ATCC 29213) (Staphylococcus sp.): >64 µg/mL
MIC Staphylococcus aureus (GC 1131) (Staphylococcus sp.): >64 µg/mL
MIC Staphylococcus aureus (GC 3051) (Staphylococcus sp.): >64 µg/mL
MIC Staphylococcus aureus (GC 3053) (Staphylococcus sp.): >64 µg/mL
MIC Staphylococcus aureus (GC 4541) (Staphylococcus sp.): >64 µg/mL
MIC Staphylococcus aureus (GC 4542) (Staphylococcus sp.): >64 µg/mL
MIC Staphylococcus aureus-SMITH (GC 4543) (Staphylococcus sp.): >64 µg/mL
MIC Staphylococcus aureus (GC 4544) (Staphylococcus sp.): >64 µg/mL
MIC Staphylococcus aureus (GC 4545) (Staphylococcus sp.): >64 µg/mL
MIC Coagulase Negative Staphylococcus (GC 4547) (Staphylococcus sp.): >64 µg/mL
MIC Coagulase Negative Staphylococcus (GC 4548) (Staphylococcus sp.): >64 µg/mL
MIC Coagulase Negative Staphylococcus (GC 4549) (Staphylococcus sp.): >64 µg/mL
MIC Coagulase Negative Staphylococcus (GC 4551) (Staphylococcus sp.): >64 µg/mL
MIC Enterococcus avium (GC 4558) (Enterococcus sp.; Enterococcus avium (GC 4558)): 64 µg/mL (≈ 44.9 µM)
MIC Enterococcus faecalis (ATCC 29212) (Enterococcus sp.; [1]): >64 µg/mL
MIC Enterococcus faecalis (GC 2242) (Enterococcus sp.; [2]): >64 µg/mL
MIC Enterococcus faecalis (GC 2691) (Enterococcus sp.; [3]): >64 µg/mL
MIC Enterococcus faecalis (GC 3059) (Enterococcus sp.; [4]): >64 µg/mL
MIC Enterococcus faecalis (GC 4552) (Enterococcus sp.; [5]): >64 µg/mL
MIC Enterococcus faecalis (GC 4553) (Enterococcus sp.; [6]): >64 µg/mL
MIC Enterococcus faecalis (GC 4554) (Enterococcus sp.; [7]): >64 µg/mL
MIC Enterococcus faecalis (GC 6189) (Enterococcus sp.; [8]): >64 µg/mL
MIC Enterococcus faecium (GC 2243) (Enterococcus sp.; Enterococcus faecium (GC 2243)): >64 µg/mL
MIC Enterococcus faecium (GC 4556) (Enterococcus sp.; Enterococcus faecium (GC 4556)): >64 µg/mL
MIC Enterococcus faecium (GC 4557) (Enterococcus sp.; Enterococcus faecium (GC 4557)): 64 µg/mL (≈ 44.9 µM)
MIC Enterococcus avium (GC 4558) (Enterococcus sp.; [9]): 64 µg/mL (≈ 44.9 µM)
MIC Enterococcus faecalis (ATCC 29212) (Enterococcus sp.; [9]): >64 µg/mL
MIC Enterococcus faecalis (GC 2242) (Enterococcus sp.; [9]): >64 µg/mL
MIC Enterococcus faecalis (GC 2691) (Enterococcus sp.; [9]): >64 µg/mL
MIC Enterococcus faecalis (GC 3059) (Enterococcus sp.; [9]): >64 µg/mL
MIC Enterococcus faecalis (GC 4552) (Enterococcus sp.; [9]): >64 µg/mL
MIC Enterococcus faecalis (GC 4553) (Enterococcus sp.; [9]): >64 µg/mL
MIC Enterococcus faecalis (GC 4554) (Enterococcus sp.; [9]): >64 µg/mL
MIC Enterococcus faecalis (GC 6189) (Enterococcus sp.; [9]): >64 µg/mL
MIC Enterococcus faecium (GC 2243) (Enterococcus sp.; [9]): >64 µg/mL
MIC Enterococcus faecium (GC 4556) (Enterococcus sp.; [9]): >64 µg/mL
MIC Enterococcus faecium (GC 4557) (Enterococcus sp.; [9]): 64 µg/mL (≈ 44.9 µM)
MIC Streptococcus agalactiae (GC 4564) (Streptococcus sp.; [10]): >64 µg/mL
MIC Streptococcus pneumoniae (ATCC 6301) (Streptococcus sp.; [11]): 64 µg/mL (≈ 44.9 µM)
MIC Streptococcus pneumoniae (GC 1894) (Streptococcus sp.; [12]): 32 µg/mL (≈ 22.4 µM)
MIC Streptococcus pneumoniae (GC 4565) (Streptococcus sp.; [13]): 64 µg/mL (≈ 44.9 µM)
MIC Streptococcus pyogenes (GC 4563) (Streptococcus sp.; [14]): 64 µg/mL (≈ 44.9 µM)
MIC Streptococcus agalactiae (GC 4564) (Streptococcus sp.; [9]): >64 µg/mL
MIC Streptococcus pneumoniae (ATCC 6301) (Streptococcus sp.; [9]): 64 µg/mL (≈ 44.9 µM)
MIC Streptococcus pneumoniae (GC 1894) (Streptococcus sp.; [9]): 32 µg/mL (≈ 22.4 µM)
MIC Streptococcus pneumoniae (GC 4565) (Streptococcus sp.; [9]): 64 µg/mL (≈ 44.9 µM)
MIC Streptococcus pyogenes (GC 4563) (Streptococcus sp.; [9]): 64 µg/mL (≈ 44.9 µM)
MIC Escherichia coli (ATCC 25922) (Escherichia coli): >64 µg/mL
MIC Escherichia coli (GC 4559) (Escherichia coli): >64 µg/mL
MIC Escherichia coli (GC 4560) (Escherichia coli): 64 µg/mL (≈ 44.9 µM)
Structure (SMILES): N=C1NCC(C(O)C2NC(=O)C(CC3CCC(OC4OC(CO)C(OC5OC6COC7(OC6C(O)C5O)C5CC6CC(C5)CC7C6)C(O)C4O)CC3)NC(=O)C(CC3CCCCC3)NC(=O)CNC(=O)C(CO)NC(=O)C(C(O)C3CNC(=N)N3C3OC(CO)C(O)C(O)C3O)NC2=O)N1 (stereo not shown) [Example 222]
MIC Staphylococcus haemolyticus (GC 4546) (Staphylococcus sp.): >64 µg/mL
